One data set has as its target T1, CXCR1 receptor (Homo sapiens, UniProt P25024).
T1 sequence (P25024 1-350): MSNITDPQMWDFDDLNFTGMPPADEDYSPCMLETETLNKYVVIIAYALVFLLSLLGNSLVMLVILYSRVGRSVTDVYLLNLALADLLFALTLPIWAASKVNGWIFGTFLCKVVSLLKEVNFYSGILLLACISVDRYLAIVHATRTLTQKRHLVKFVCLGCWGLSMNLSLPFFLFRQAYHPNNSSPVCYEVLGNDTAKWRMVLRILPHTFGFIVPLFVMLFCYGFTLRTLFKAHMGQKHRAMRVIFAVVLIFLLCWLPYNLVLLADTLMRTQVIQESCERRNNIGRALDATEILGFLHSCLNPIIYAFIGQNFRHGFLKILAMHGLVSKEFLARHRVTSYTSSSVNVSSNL
Briefly: Receptor binding assay ([125I] IL-8 SPA), CXCR1. Set-up: expressed in transfected cells; host or cells: CHO cells (membranes). Particulars: [125I] IL-8 binding, CHO-CXCR1 membranes; read-out: pIC50 against the CXCR1 receptor (converted). The method, then: [^125I] IL-8 (human recombinant, IM249) was obtained from Amersham Corp., Arlington Heights, Ill., with specific activity 2000 Ci/mmol. All other chemicals were of analytical grade. High levels of recombinant human CXCR1 and CXCR2 receptors were individually expressed in Chinese hamster ovary (CHO) cells as described in Holmes, et al., Science, 1991, 253, 1278, incorporated herein to the extent required to perform the present assay. The Chinese hamster ovary membranes were prepared according to Haour, et al., J. Biol. Chem., 249 pp 2195-2205 (1974), incorporated herein to the extent required to perform the present assay, except that the homogenization buffer was changed to 40 mM Tris-HCL pH 7.5 containing 1 mM MgSO4, 0.5 mM EDTA (ethylene-diaminetetra-acetic acid), 1 mM PMSF (α-toluene-sulphonyl fluoride), 2.5 mg/L Leupeptin and 0.1 mg/ml Aprotinin. Membrane protein concentration was determined using Bio-Rad Reagent using bovine serum albumin as a standard. All binding assays were conducted using Scintillation Proximity Assay (SPA assay) using wheatgerm agglutinin beads in a 96-well micro plate (optiplate 96, Packard) format. […] The 96-well plates were incubated on a shaking platform for 1 hour. At the end of the incubation the plates were spun for 5 min at 2000 RPM, and counted in a Top Count counter.

A further data set has as its target T2, CXCR2 receptor (Homo sapiens, UniProt P25025).
T2 sequence (P25025 1-360): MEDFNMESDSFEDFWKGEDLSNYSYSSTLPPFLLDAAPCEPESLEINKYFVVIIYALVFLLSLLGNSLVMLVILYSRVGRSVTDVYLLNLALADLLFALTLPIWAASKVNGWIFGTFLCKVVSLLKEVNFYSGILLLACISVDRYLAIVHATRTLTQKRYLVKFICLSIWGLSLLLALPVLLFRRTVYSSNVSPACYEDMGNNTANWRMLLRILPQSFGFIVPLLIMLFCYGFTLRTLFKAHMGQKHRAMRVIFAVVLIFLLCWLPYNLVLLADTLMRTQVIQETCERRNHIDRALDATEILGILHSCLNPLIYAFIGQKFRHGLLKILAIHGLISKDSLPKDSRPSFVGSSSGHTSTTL
Briefly: CXCR2 Tango assay. It counts as cell-based. Set-up: fused on or other part: TEV protease cleavage site and Gal4-VP16 transcription factor fused to the receptor (Invitrogen Tango construct); no part of the key. The settings on record: Tango reporter gene, 80 nM hCXCL1; read-out: pIC50 against the CXCR2 receptor (converted). The source says:
The assay measures ligand-induced activation of the receptor CXCR2 in a stable cell line containing the recombinant human CXCR2 linked to a TEV protease site and a Gal4-VP16 transcription factor (Invitrogen). Ligand binding to the receptor results in the recruitment of arrestin proteins (tagged with protease) to the receptor and triggers the release of a tethered transcription factor. The transcription factor enters the nucleus and activates the transcription of the reporter gene. The ability of a compound to inhibit CXCR2 activation is indirectly assessed by measuring the reporter gene activity.
A vial of cryopreserved cells was removed from liquid nitrogen and rapidly thawed in a water bath at 37° C. with gentle agitation. The cell contents were collected and resuspended in Assay Medium at a density of ˜200,000 cells/ml. All test compounds were dissolved in DMSO at a concentration of 10 mM and then were serially diluted to generate a 10-point dose response curve into 384-well assay plate (Greiner 781090) using an Echo (Labcyte) concentration-response program (50 nl/well). The cell-free, un-stimulated and positive controls were loaded with 50 nl/well pure DMSO to ensure that the DMSO concentration was constant across the plate for all assays. Using Multi-drop Combi (Thermo) with standard cassette, 50 μl of Assay Medium was added to cell-free control wells in compound-containing assay plate; 50 μl of the cell suspension without hCXCL1 (a CXCR2 ligand) was added to un-stimulated control wells (10,000 cells per well); and 50 μl of the cell suspension with 80 nM hCXCL1 was added to the rest of wells of the assay plate (10,000 cells per well). The cells were incubated overnight at 37° C./5% CO2·10 μl of 6× substrate mixture (LiveBLAzer™-FRET B/G substrate (CCF4-AM) Cat #K1096 from Invitrogen, Inc.) was added to each well using Multi-drop Combi (Thermo) with small-tube cassette and the plate was incubated at room temperature for 2 h in the dark. The plate was then read on EnVision using one excitation channel (409 nm) and two emission channels (460 nm and 530 nm).
The blue/green emission ratio (460 nm/530 nm) was calculated for each well by dividing the background-subtracted Blue emission values by the background-subtracted Green emission values. The dose response curve was based on sigmoidal dose-response model. All ratio data was normalized based upon the maximum emission ratio of positive control (hCXCL1) and minimum emission ratio of negative control (DMSO) on each plate.

The next data set concerns HCT116 cell line. Briefly: Colorectal cancer cell line proliferation assay, HCT116. The settings on record: HCT116, 72 hours. The data set is classed as cell-based. The procedure:
Cell proliferation assay: Cells were seeded in 96-well plates (Costar) at different cell densities: HCT116, 500 cells per well; Caco-2, 1000 cells per well. Total volume of the medium was 90 μl per well. Cells were incubated for 24 hours at 37° C. and 5% CO2 incubator. […] The final concentration of the Compound of Formula (A) was 8.5 μM. […] The cell proliferation rate was measured by adding 100 μl of CellTiter-Glo™ (Promega) according to the manufacturer's instructions. After 10 minutes of incubation, the cell lysates were transferred into OptiPlate-384 well, the luminescence was recorded by BioTek Synergy™ 4 Hybrid Microplate Reader with Gen5 software. All data points were generated in five replicates. Three independent experiments were performed. […] All data were presented as the mean±standard error of the mean determined from three independent experiments.

Another data set deals with Sprague-Dawley rats. Briefly: CXCR2 antagonist effect on repeat dosing oxaliplatin induced sensory injury rat. Particulars: Veh/Oxa rats, 4 mg/kg i.p. twice per week for 4 weeks, Day 29-31, mean±SEM.

Here are results for 8 compounds from patent US20170224679A1, “Use of CXCR2 Antagonists For The Prevention and/or Treatment of Chemotherapy Induced Peripheral Neuropathy (CIPN)” (GlaxoSmithKline Intellectual Property Development Limited, priority 2014, published 2017).

Description for Sprague-Dawley rats: Male Sprague-Dawley rats (109-167 g, ˜5weeks old) were housed in cages in groups of three in a controlled environment of constant temperature and moisture (temperature: 25±3° C., light: dark cycle of 12:12 hours) with food (25 g/rat/day of LabDiet 5053) and water available ad libitum.
MC (Sigma Cat #423238) was made up in water at 1% (w/v) (1 g per 100 mL water) and left on a stirrer until completely dissolved. The formulation was prepared every 6-8 days in 400-700 mL each time and stored at 4° C. protected from light. The dosing volume used was 10 mL/kg to give a 20 mg/kg p.o. dose. Vehicle treated animals were dosed b.i.d. with 1% MC w/v at 10 mL/kg p.o.
A fresh solution was prepared before every injection. Control vehicle animals were treated with 5% w/v Gluclose at 5ml/kg. Glucose (Sigma Aldrich Cat #G7021) was made up in milli-Q water at 5% (w/v) (5 g per 100 mL water) and left on a stirrer until completely dissolved.
Body weight tracking: The bodyweights of rats were measured twice a week for 4 weeks on Days 1, 3, 9, 11, 16, 18, 23, and 25. […]
Rats were anesthetized with chloral hydrate (350 mg/kg, 3.5 mL/kg, i.p.). […] The right sciatic nerve was carefully identified and conduction velocity was measured by recording action potentials from an electrode placed between the second and third digits as described by Jamieson et al., Br. J. Cancer, 88(12):1942-7 (2003), and electrically stimulating the nerve (5V, 0.5 s, single-wave pulses) via a platinum wire electrode at the sciatic notch and ankle. The length between the sciatic notch and ankle was measured.
The nerve conduction velocity was calculated as the length between sciatic notch and ankle divided by the difference between the time latencies at the stimulation sites [latency (sciatic notch)−latency (ankle)].
A 1 cm segment of the left sciatic nerve (distal end) was located and carefully dissected out. […] The ratio of inner area over entire area of nerve fibers of sciatic nerves was then calculated as an indicator of thickness of myelin sheath of nerves.

In the case of `Cc1c(F)cccc1NC(=O)Nc1ccc(Cl)c(S(=O)(=O)C2CCCNC2)c1O` (stereo not shown) [Compound of Formula (B), 1-(4-chloro-2-hydroxy-3-(piperidin-3-ylsulfonyl)phenyl)-3-(3-fluoro-2-methylphenyl)urea], the IC50 at CXCR1 receptor is 1000 nM.

For the compound `CC1=CCC[C@H]1NC(=O)Nc1ccc(Cl)c(S(=O)(=O)[C@]2(C)CCOC2)c1O` [Compound of Formula (C), 1-(4-chloro-2-hydroxy-3-(((R)-3-methyltetrahydrofuran-3-yl)sulfonyl)phenyl)-3-((R)-2-methylcyclopent-2-en-1-yl)urea], the IC50 on CXCR2 receptor is 1 nM.

On to `CC1(S(=O)(=O)c2c(Cl)ccc(NC(=O)N[C@@H]3CCC=C3Cl)c2O)CCOCC1` [Compound of Formula (E), (R)-1-(4-chloro-2-hydroxy-3-((4-methyltetrahydro-2H-pyran-4-yl)sulfonyl)phenyl)-3-(2-chlorocyclopent-2-en-1-yl)urea], for which the IC50 on CXCR2 receptor was 1.58 nM. On the same count and under the same terms, in the case of `CC1=CCC[C@H]1NC(=O)Nc1ccc(C#N)c(S(=O)(=O)C(C)(C)C)c1O` [Compound of Formula (F), (R)-1-(3-(tert-butylsulfonyl)-4-cyano-2-hydroxyphenyl)-3-(2-methylcyclopent-2-en-1-yl)urea] it was 0.2 nM. Consider `CC1=CCC[C@H]1NC(=O)Nc1ccc(Cl)c(S(=O)(=O)[C@H]2C[C@H](N3CCCC3)C2)c1O` [Compound of Formula (G), 1-(4-chloro-2-hydroxy-3-((trans-3-(pyrrolidin-1-yl)cyclobutyl)sulfonyl)phenyl)-3-((R)-2-methylcyclopent-2-en-1-yl)urea], for which the IC50 at CXCR2 receptor was 1 nM. Turning to `CC1=CCC[C@H]1NC(=O)Nc1ccc(Cl)c(S(=O)(=O)[C@H]2C[C@H](N(C)C)C2)c1O` [Compound of Formula (H), 1-(4-chloro-3-((trans-3-(dimethylamino)cyclobutyl)sulfonyl)-2-hydroxyphenyl)-3-((R)-2-methylcyclopent-2-en-1-yl)urea], the IC50 on CXCR2 receptor was 1 nM. Regarding `CC1=CCC[C@H]1NC(=O)Nc1ccc(Cl)c(S(=O)(=O)C(C)(F)F)c1O` [Compound of Formula (I), (R)-1-(4-chloro-3-((1,1-difluoroethyl)sulfonyl)-2-hydroxyphenyl)-3-(2-methylcyclopent-2-en-1-yl)urea], the IC50 at CXCR2 receptor was 0.398 nM. In the case of `O=C1[O][Pt]2([NH][C@@H]3CCCC[C@H]3[NH]2)[O]C1=O` [Oxaliplatin, oxaliplatin], in the data set on HCT116 cell line (oxaliplatin with vehicle, mean±SEM), the “pIC50 inhibition of cell proliferation” value is 6.049±0.016. The “pIC50 inhibition of cell proliferation in the presence of Compound of Formula (A)” value in the data set with HCT116 cell line (with Compound of Formula (A) 8.5 μM) turned out to be 6.05±0.02. The “sciatic nerve conduction velocity between sciatic notch and ankle” value in the data set with Sprague-Dawley rats is on record as 35.99±0.59 m/s.
